According to ChEMBL document CHEMBL5030555:
Calls of active or inactive are those of the source. No cut-off for these calls is given here.

What was measured:
Vero [1] = test: Inhibition of Escherichia coli Stx2a using african green monkey Vero cell assessed as inhibition of depurination incubated pretreated cells for 1 hr measured after 2 hrs of toxin addition; format: cell-based; conditions: time 3.0 hrs
Vero [2] = test: Protection against Escherichia coli Stx2a-induce d african green monkey Vero cell death assessed as protection of cell viability incubated pretreated cells for 1 hr measured after 2 hrs of toxin addition; format: functional, cell-based; conditions: Chlorocebus sabaeus, time 3.0 hrs

Cc1cc(C)c(-c2ccc(C(=O)O)s2)c(C)c1
inhibition (Vero [1]): inactive
Activity (Vero [2]): inactive

Cc1cccc(C)c1-c1ccc(C(=O)O)s1
inhibition (Vero [1]): inactive
Activity (Vero [2]): inactive

Cc1ccccc1-c1ccc(C(=O)O)s1
inhibition (Vero [1]): inactive
Activity (Vero [2]): inactive

CCc1ccccc1-c1ccc(C(=O)O)s1
inhibition (Vero [1]): inactive
Activity (Vero [2]): inactive
